Assay results published in US20260176295A1, “PHOSPHONATE CONJUGATES AND USES THEREOF” (The Translational Genomics Research Institute, priority 2019, published 2026).
Like-named read-outs stand apart in the source and are kept apart here. Values belong to the compound of their own block, whether it stands above or below them.

Columns and labels:
RON Kinase Enzyme = target: T1, RON Kinase Enzyme (Homo sapiens, UniProt Q04912); assay: Kinase ADP-Glo inhibition assay; assay type: biochemical; conditions: 25 μM ATP
T1 construct: purchased Promega V3921
T1 sequence (Q04912 25-1400): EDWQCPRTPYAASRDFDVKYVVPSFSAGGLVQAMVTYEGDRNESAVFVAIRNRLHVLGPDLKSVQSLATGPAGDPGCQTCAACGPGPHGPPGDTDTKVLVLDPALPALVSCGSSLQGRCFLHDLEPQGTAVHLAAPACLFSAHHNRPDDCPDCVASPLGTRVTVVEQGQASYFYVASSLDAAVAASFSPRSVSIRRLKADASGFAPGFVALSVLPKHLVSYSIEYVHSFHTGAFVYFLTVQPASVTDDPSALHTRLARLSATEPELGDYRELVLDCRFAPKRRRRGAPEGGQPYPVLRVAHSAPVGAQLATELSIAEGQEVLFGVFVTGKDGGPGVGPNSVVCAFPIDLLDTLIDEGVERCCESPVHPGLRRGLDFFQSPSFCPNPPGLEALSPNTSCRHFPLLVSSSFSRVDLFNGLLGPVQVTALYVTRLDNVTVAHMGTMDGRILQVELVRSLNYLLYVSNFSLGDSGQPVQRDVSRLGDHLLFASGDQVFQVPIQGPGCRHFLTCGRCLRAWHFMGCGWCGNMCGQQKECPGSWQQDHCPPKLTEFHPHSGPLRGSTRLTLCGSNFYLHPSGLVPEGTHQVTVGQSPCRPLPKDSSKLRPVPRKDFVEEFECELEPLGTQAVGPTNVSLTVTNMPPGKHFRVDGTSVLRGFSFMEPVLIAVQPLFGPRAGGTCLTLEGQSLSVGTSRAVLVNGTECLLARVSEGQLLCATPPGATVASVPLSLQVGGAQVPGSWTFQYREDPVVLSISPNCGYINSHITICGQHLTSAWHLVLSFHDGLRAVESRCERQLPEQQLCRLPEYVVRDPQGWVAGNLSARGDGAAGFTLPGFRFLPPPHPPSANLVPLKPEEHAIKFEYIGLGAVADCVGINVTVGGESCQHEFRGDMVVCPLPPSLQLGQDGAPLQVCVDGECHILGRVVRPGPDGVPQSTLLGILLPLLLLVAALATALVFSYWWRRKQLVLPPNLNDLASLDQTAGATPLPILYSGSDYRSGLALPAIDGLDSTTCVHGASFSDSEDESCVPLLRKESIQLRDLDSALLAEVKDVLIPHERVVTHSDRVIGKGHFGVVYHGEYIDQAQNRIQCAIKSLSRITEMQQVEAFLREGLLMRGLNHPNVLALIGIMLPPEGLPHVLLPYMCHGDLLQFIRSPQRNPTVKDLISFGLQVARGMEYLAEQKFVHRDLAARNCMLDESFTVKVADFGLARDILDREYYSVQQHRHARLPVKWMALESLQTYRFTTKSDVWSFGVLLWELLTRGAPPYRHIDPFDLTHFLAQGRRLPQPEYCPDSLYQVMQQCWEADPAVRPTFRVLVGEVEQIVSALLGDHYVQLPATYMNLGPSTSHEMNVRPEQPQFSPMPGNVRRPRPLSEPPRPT
Description: • Assay Buffer • 40 mM Tris-HCl pH7.5, 20 mM MgCl2, 0.1 mg/mL BSA • RON Kinase Enzyme System (Promega #: V3921) • Axltide Substrate • RON Kinase Enzyme • ADP-Glo™ Assay (Promega #: V9101) • ATP, 10 mM • ADP-Glo™ Reagent • Kinase Detection Reagent • 384-well white assay plates
A ten point serial dilution of compound was prepared at 5× concentration in assay buffer with the final assay concentrations starting at 30 μM, 10 μM, 3 μM, 1 μM . . . 0 μM. Enzyme, substrate, and ATP were used at 25 ng, 200 ng and 25 μM, respectively. The assay plate was set up by mixing the components in a total reaction volume of 10 μL per well. The plate was centrifuged gently for 10 seconds and incubated at room temperature (RT) for 60 minutes in the dark. The ADP-Glo Reagent and kinase detection reagent were added and incubated as recommended. The reaction was quantified by measuring luminescence on the Perkin Elmer Envision plate reader. Data was analyzed using Graphpad Prism 7 software.

[1] = Pharmacokinetic (PK) study of phosphate conjugates of BMS-777607 in male swiss albino mice; assay type: in vivo; conditions: 2 mg/kg single intravenous bolus; for AUC(0-inf) / AUC(0-t) / C0 / clearance / half-life / Vd / Kp: mouse; for Vd: read-out: VSS; for Kp: read-out: bone to plasma ratios (AUClast)
Description: For extended time points (>24 hrs), BID dosing was done 8 hr apart.
The study was performed using sparse design to obtain composite profile (n=3/time point) as summarized in the table1. Blood and whole bone with marrow were collected at predetermined time points. At each time point, about 120 μL of blood was collected by retro-orbital sinus puncture into a labeled microfuge tube containing 200 mM K2EDTA solution (20 μL per mL of blood). The blood samples were processed within 30 minutes to obtain the plasma samples. At respective time points, blood samples were collected and animals were euthanized to harvest whole femur bone (bone with marrow). All plasma and bone with marrow samples were stored at −80° C.
The plasma and bone with bone marrow homogenate samples were analyzed using a fit-for purpose LC-MS/MS method with a lower limit of quantification (LLOQ) of 1.00 ng/ml (plasma) and 11.0 ng/g (bone). In some instances, bone marrow was separated from bone and analyzed independently. The pharmacokinetic parameters of the drugs were calculated using the non-compartmental analysis tool of validated Phoenix® WinNonlin® software (version 8.0).

RON/MST1R = RON/MST1R (Homo sapiens, UniProt Q04912); assay: Ron tyrosine kinase inhibition assay (10 dose IC50 mode, 10 μM ATP); assay type: biochemical; conditions: read-out: Compound IC50
Sequence of RON/MST1R (Q04912 25-1400): as above
Description: Compounds were tested in 10 dose IC50 mode with 3-fold serial dilution starting at 100 μM. […] Reactions were carried out at 10 μM ATP. Data pages include raw data, % Enzyme activity (relative to DMSO controls) and curve fits. Curve fits were performed where the enzyme activities at the highest concentration of compounds were less than 65%.
IC50 values may be determined using GraphPad Prism 5 software. The data may be entered as an X-Y plot into the software as percent inhibition for each concentration of the drug. The concentration values of the drug may be log transformed and the nonlinear regression may be carried out using the “sigmoidal dose-response (variable slope)” option within the GraphPad software to model the data and calculate IC50 values. The IC50 values reported are the concentration of drug at which 50% inhibition was reached.

[2] = male, Swiss Albino, in vivo, iv, 2 mg/kg, Bone with Bone marrow
[3] = male, Swiss Albino, in vivo, iv, 2 mg/kg, Plasma
[4] = in vivo, Plasma, male Swiss Albino mice

Compound: CCOc1ccn(-c2ccc(F)cc2)c(=O)c1C(=O)Nc1ccc(Oc2ccnc(NC(P(=O)(OCC)OCC)P(=O)(OCC)OCC)c2Cl)c(F)c1 [Compound 9, tetraethyl (((3-chloro-4-(4-(4-ethoxy-1-(4-fluorophenyl)-2-oxo-1,2-dihydropyridine-3-carboxamido)-2-fluorophenoxy)pyridin-2-yl)amino)methylene)bis(phosphonate)]
IC50 (RON Kinase Enzyme): 33.8 µM

Compound: Nc1nccc(Oc2ccc(NC(=O)c3c(OCP(=O)([O-])[O-])ccn(-c4ccc(F)cc4)c3=O)cc2F)c1Cl.[Na+].[Na+] [Compound 10, (((3-((4-((2-amino-3-chloropyridin-4-yl)oxy)-3-fluorophenyl)carbamoyl)-1-(4-fluorophenyl)-2-oxo-1,2-dihydropyridin-4-yl)oxy)methyl)phosphonate]
IC50 (RON Kinase Enzyme): 0.547 µM | accumulation in bone [1]: accumulated in the bone | AUCinf ([1]; Bone with Bone marrow): 2920 h*ng · h/mL | AUC(0-t) [1, 2]: 2420 ng·h/mL | clearance [1, 2]: 11.4 mL/min/kg | half-life [1, 2]: 1.61 h | Vd [1, 2]: 1.5 L/kg | AUC(0-t) [1, 3]: 9830 ng·h/mL | clearance [1, 3]: 3.36 mL/min/kg | half-life [1, 3]: 0.987 h | Vd [1, 3]: 0.179 L/kg | Kp ([1]; in vivo): 0.25 | AUC(0-inf) ([1]; in vivo, Plasma): 9910 ng·h/mL | C0 ([1]; in vivo, Plasma): 16000 ng/mL

Compound: CCOc1ccn(-c2ccc(F)c(OP(=O)(O)O)c2)c(=O)c1C(=O)Nc1ccc(Oc2ccnc(N)c2Cl)c(F)c1 [Compound 12, sodium 5-(3-((4-((2-amino-3-chloropyridin-4-yl)oxy)-3-fluorophenyl)carbamoyl)-4-ethoxy-2-oxopyridin-1(2H)-yl)-2-fluorophenyl phosphate]
IC50 (RON Kinase Enzyme): 0.058 µM | AUC(0-inf) [1, 4]: 963 ng·h/mL | AUC(0-t) [1, 4]: 959 ng·h/mL | C0 [1, 4]: 4680 ng/mL | clearance [1, 4]: 34.6 mL/min/kg | half-life [1, 4]: 1.17 h | Vd [1, 4]: 0.879 L/kg

Compound: CCOc1ccn(-c2ccc(F)c(COP(=O)(O)O)c2)c(=O)c1C(=O)Nc1ccc(Oc2ccnc(N)c2Cl)c(F)c1 [Compound 13, sodium 5-(3-((4-((2-amino-3-chloropyridin-4-yl)oxy)-3-fluorophenyl)carbamoyl)-4-ethoxy-2-oxopyridin-1(2H)-yl)-2-fluorobenzyl phosphate]
IC50 (RON Kinase Enzyme): 2.43 µM

The remaining lines, values ahead:

IC50 (RON Kinase Enzyme): 0.018 µM | AUC(0-inf) ([1]; Plasma): 1690 ng·h/mL | AUC(0-t) ([1]; Plasma): 1690 ng·h/mL | C0 ([1]; Plasma): 3610 ng/mL | clearance ([1]; Plasma): 19.7 mL/min/kg | half-life ([1]; Plasma): 3.42 h | Vd ([1]; Plasma): 1.42 L/kg | AUC(0-t) ([1]; bone (without marrow), Bone only): 296 ng·h/mL | Kp ([1]; bone / plasma): 0.17 | IC50 (RON/MST1R): 0.0172 µM
Compound: CCOc1ccn(-c2ccc(F)cc2)c(=O)c1C(=O)Nc1ccc(Oc2ccnc(N)c2Cl)c(F)c1 [BMS-777607, N-(4-((2-amino-3-chloropyridin-4-yl)oxy)-3-fluorophenyl)-4-ethoxy-1-(4-fluorophenyl)-2-oxo-1,2-dihydropyridine-3-carboxamide, reference compound]

IC50 (RON Kinase Enzyme): 13.4 µM | IC50 (RON/MST1R): 13.4 µM
Compound: CCOc1ccn(-c2ccc(F)cc2)c(=O)c1C(=O)Nc1ccc(Oc2ccnc(NC(P(=O)(O)O)P(=O)(O)O)c2Cl)c(F)c1 [Compound 1, (((3-chloro-4-(4-(4-ethoxy-1-(4-fluorophenyl)-2-oxo-1,2-dihydropyridine-3-carboxamido)-2-fluorophenoxy)pyridin-2-yl)amino)methylene)diphosphonic acid]

IC50 (RON Kinase Enzyme): 1.27 µM
Compound: CCOc1ccn(-c2ccc(F)c(OCCC(P(=O)(O)O)P(=O)(O)O)c2)c(=O)c1C(=O)Nc1ccc(Oc2ccnc(N)c2Cl)c(F)c1 [Compound 11, sodium (3-(5-(3-((4-((2-amino-3-chloropyridin-4-yl)oxy)-3-fluorophenyl)carbamoyl)-4-ethoxy-2-oxopyridin-1(2H)-yl)-2-fluorophenoxy)propane-1,1-diyl)bis(phosphonate)]
